# How the values were obtained:
# recombinant human HDACs = assay: HDAC enzymatic assay (LabChip capillary electrophoresis); format: biochemical; conditions: 5 nM HDAC enzyme, 1 uM substrate, 5 hours pre-incubation, 17 hours reaction at 25°C; isoform not given
# Protocol: All recombinant human HDACs were purchased from BPS Bioscience. The substrate, FAM-TSRHK(AC)KL-CONH, was synthesized at NanoSyn. Final assay reactions contained 100 mM HEPES (pH 7.5), 50 mM KCl, 0.1% BSA, 0.01% Triton X-100, 1% DMSO, 1 uM substrate and 5 nM HDAC enzyme. Enzyme and compounds were pre-incubated at 25°C for 5 hours and reactions were initiated by addition of substrate. 10 uL reactions were incubated for 17 hours at 25°C and terminated by the addition of 40 uL of buffer containing 100 mM HEPES (pH 7.5), 0.1% BSA, 0.01% Triton X-100 and 0.05% SDS. Substrate and product peptides present in each sample were separated electrophoretically using the LabChip 3000 capillary electrophoresis instrument. Change in the relative fluorescence intensity of the substrate and product peaks reflects enzyme activity. Reaction progress was determined as the product to sum ratio (PSR): P/(S+P), where P is the peak height of the product peptide and S is the peak height of the substrate peptide. Reactions were performed in duplicate at 12 concentrations, (3X serial dilutions starting at 30 uM). IC50 values were calculated using a 4 Parameter Logistic Model.
# SH-SY5Y cells = assay: Cell assay in SH-SY5Y cells with HDAC-Glo 2 reagent; format: cell-based; conditions: Homo sapiens, 5 h, five hours at 37°C, CI-994 at 100 uM defined as 100% inhibition
# Protocol: SH-SY5Y cells (Sigma) were cultured in Eagle's Modified Essential Medium supplemented with 10% fetal bovine serum and pen/strep. Twenty-four hours prior to compound dosing 20 uL of cells were plated in white 384 well plates at a density of 1,500 cells/well. Compounds were serially diluted in neat DMSO and then diluted 1:100 v/v into media without FBS and mixed. Media was removed from the plated cells and the diluted compounds in serum free media (1% v/v final DMSO) were added and incubated at 37°C for five hours. Ten uL of HDAC-Glo 2 reagent with 0.1% Triton X-100 was then added, the plate was mixed and allowed to develop at room temperature for 100 minutes. Plates were then read with a Spectramax LMax luminometer employing a 0.4s integration time. Dose response curves were constructed with normalized data where CI-994 at 100 uM was defined as 100% inhibition and DMSO alone as 0% inhibition. Table 5. IC50 and EC50 Values for Exemplary Compounds Useful in the Invention
# HDAC1 = HDAC1 (Homo sapiens, UniProt Q13547); assay: Reporter displacement assay (HDAC1); format: binding
# HDAC2 = biological target: T1, HDAC2 (Homo sapiens, UniProt Q92769); assay: Reporter displacement assay (HDAC2); format: binding; conditions: 20 nM HDAC2, 180 nM reporter probe, read after 4 hours; Kd by Cheng Prusoff equation
# T1 construct: purchased Proteros
# Protocol: HDAC2 containing a C-terminal HIS-Tag (Proteros) and fluorescently-labeled anti-HIS-antibody are diluted in one vial in assay buffer 50 mM Tris, pH 8.0, 1 mM DTT, 150 mM NaCl, and 0.01% Tween20. Components are pre-incubated for 30 min, then a small volume of reporter probe (Proteros) is added from a highly concentrated stock and incubation is continued for another 30 min. […] Ten µl/well of pre-formed complex are transferred into 384 well assay plates (Corning). Compounds to be profiled are serially diluted from 1x10^1 - 5.7x10^-5 mM in DMSO and 60 nl are added to assay plates by pintool transfer (CybiWell, Cybio). Fluorescence intensity signal is read after 4 hours in a Pherastar FS (BMG Labtech) at 337/665 nm. For Kd determination, percent probe displacement values are calculated for each compound concentration and plotted against the compound concentration. […] Since the reporter probe is used at a concentration reflecting its own Kd value, compound Kd values can be calculated according to the Cheng Prusoff equation. […] Table 4. HDAC1 and HDAC2 Kd Values for Exemplary Compounds Useful in the Invention
# Sequence of HDAC1 (Q13547 whole entry): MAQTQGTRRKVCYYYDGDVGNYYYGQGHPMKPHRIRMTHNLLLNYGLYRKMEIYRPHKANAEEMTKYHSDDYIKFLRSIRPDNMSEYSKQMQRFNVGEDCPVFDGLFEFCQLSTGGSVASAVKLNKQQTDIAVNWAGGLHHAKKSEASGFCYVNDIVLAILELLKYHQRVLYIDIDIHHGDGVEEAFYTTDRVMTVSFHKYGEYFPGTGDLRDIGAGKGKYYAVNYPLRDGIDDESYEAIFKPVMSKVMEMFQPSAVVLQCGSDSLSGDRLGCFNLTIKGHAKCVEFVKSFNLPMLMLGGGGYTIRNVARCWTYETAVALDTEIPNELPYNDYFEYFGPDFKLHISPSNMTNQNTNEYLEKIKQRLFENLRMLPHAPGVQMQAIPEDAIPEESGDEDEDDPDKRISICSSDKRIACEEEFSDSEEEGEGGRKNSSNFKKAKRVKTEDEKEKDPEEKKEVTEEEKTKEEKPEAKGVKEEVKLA
# T1 sequence (Q92769 whole entry): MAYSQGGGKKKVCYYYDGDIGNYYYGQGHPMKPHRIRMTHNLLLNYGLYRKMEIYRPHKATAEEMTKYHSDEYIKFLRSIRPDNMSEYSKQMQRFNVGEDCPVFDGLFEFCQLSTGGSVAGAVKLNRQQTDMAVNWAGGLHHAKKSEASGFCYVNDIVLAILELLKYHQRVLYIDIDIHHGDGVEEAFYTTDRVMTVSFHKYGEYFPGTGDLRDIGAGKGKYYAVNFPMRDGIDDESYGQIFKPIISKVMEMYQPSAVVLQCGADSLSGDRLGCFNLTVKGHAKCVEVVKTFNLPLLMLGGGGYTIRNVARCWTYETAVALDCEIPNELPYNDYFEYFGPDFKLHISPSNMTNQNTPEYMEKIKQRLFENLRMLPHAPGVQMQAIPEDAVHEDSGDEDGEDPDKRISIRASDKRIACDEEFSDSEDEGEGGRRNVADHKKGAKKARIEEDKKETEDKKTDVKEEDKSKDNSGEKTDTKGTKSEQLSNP
SMILES,IC50 (recombinant human HDACs) [nM],EC50 (SH-SY5Y cells) [nM],Kd (HDAC1) [nM],Kd (HDAC2) [nM]
CN1CCC(N2C[C@@H]3[C@H](C2)[C@H]3C(=O)Nc2nc(-c3ccc(F)cc3)ccc2N)CC1 (stereo in doubt) [Compound 263],500 to 5000,500 to 5000,–,–
Nc1nn(-c2ccccc2)cc1NC(=O)N1Cc2ccncc2C1 [Compound 101],–,–,> 5000,> 5000
Nc1nn(-c2ccc(F)cc2)cc1NC(=O)N1Cc2ccncc2C1 [Compound 102],–,–,> 5000,> 5000
Nc1ccc(-c2cccs2)nc1NC(=O)N1Cc2cc(CN3CCCC3)cnc2C1 [Compound 144],100 to 500,100 to 500,–,–
CN(C)Cc1cnc2c(c1)CN(C(=O)Nc1nc(-c3cccs3)ccc1N)C2 [Compound 145],100 to 500,100 to 500,–,–
CN(C)Cc1ccc(C2CN(C(=O)Nc3nc(-c4ccc(F)cc4)ccc3N)C2)cc1 [Compound 146],100 to 500,500 to 5000,–,–
CN1CC=C(c2cc3c(cn2)CN(C(=O)Nc2nc(-c4ccc(F)cc4)ccc2N)C3)CC1 [Compound 148],100 to 500,500 to 5000,–,–
CN1CCC(c2cc3c(cn2)CN(C(=O)Nc2nc(-c4ccc(F)cc4)ccc2N)C3)CC1 [Compound 149],100 to 500,100 to 500,–,–
CN(C)Cc1cnc2c(c1)CN(C(=O)Nc1nc(-c3ccc(F)cc3)ccc1N)C2 [Compound 154],100 to 500,100 to 500,–,–
Nc1ccc(-c2ccc(F)cc2)nc1NC(=O)N1Cc2cc(CN3CCCC3)cnc2C1 [Compound 155],100 to 500,100 to 500,–,–
Nc1ccc(-c2cccs2)nc1NC(=O)N1Cc2nccnc2C1 [Compound 156],100 to 500,100 to 500,–,–
CN1CCN(c2cnc3c(c2)CN(C(=O)Nc2nc(-c4ccc(F)cc4)ccc2N)C3)CC1 [Compound 159],100 to 500,500 to 5000,–,–
CN(C)Cc1cnc2c(c1)CN(C(=O)Nc1nc(-c3cccnc3)ccc1N)C2 [Compound 161],100 to 500,100 to 500,–,–
CN(C)Cc1cc2c(cn1)CN(C(=O)Nc1nc(-c3ccc(F)cc3)ccc1N)C2 [Compound 162],100 to 500,100 to 500,–,–
CN1CCc2sc(C(=O)Nc3nc(-c4ccco4)ccc3N)nc2C1 [Compound 163],100 to 500,100 to 500,–,–
COCc1cc2c(cn1)CN(C(=O)Nc1nc(-c3ccc(F)cc3)ccc1N)C2 [Compound 243],100 to 500,500 to 5000,–,–
CN1CCC(c2cnc3c(c2)CN(C(=O)Nc2nc(-c4cccs4)ccc2N)C3)CC1 [Compound 250],100 to 500,100 to 500,–,–
CN1CC=C(c2cnc3c(c2)CN(C(=O)Nc2nc(-c4cccs4)ccc2N)C3)CC1 [Compound 251],100 to 500,100 to 500,–,–
CN1CCC(c2cnc3c(c2)CN(C(=O)Nc2nc(-c4ccc(F)cc4)ccc2N)C3)CC1 [Compound 252],100 to 500,100 to 500,–,–
CN1CC=C(c2cnc3c(c2)CN(C(=O)Nc2nc(-c4ccc(F)cc4)ccc2N)C3)CC1 [Compound 253],100 to 500,100 to 500,–,–
Cn1cc2c(n1)CN(C(=O)Nc1nc(-c3ccc(F)cc3)ccc1N)C2 [Compound 257],100 to 500,100 to 500,–,–
Cn1ncc2c1CN(C(=O)Nc1nc(-c3ccc(F)cc3)ccc1N)C2 [Compound 258],500 to 5000,500 to 5000,–,–

SMILES,IC50 (recombinant human HDACs) [nM],EC50 (SH-SY5Y cells) [nM],Kd (HDAC1) [nM],Kd (HDAC2) [nM]
CN1CCC(c2cnc3c(c2)CN(C(=O)Nc2nc(-c4cccnc4)ccc2N)C3)CC1 [Compound 265],500 to 5000,500 to 5000,–,–
Nc1ccc(-c2ccc(F)cc2)nc1NC(=O)N1Cc2cnc(CN3CC(F)(F)C3)cc2C1 [Compound 266],500 to 5000,500 to 5000,–,–
Nc1ccc(-c2ccc(F)cc2)nc1NC(=O)N1C[C@@H]2[C@H](C1)[C@H]2NC1COC1 [Compound 267],> 5000,> 5000,–,–
CN1CC(CN2C[C@@H]3[C@H](C2)[C@H]3C(=O)Nc2nc(-c3ccc(F)cc3)ccc2N)C1 [Compound 268],> 5000,> 5000,–,–
CN1CCN(C[C@@H]2[C@H]3CN(C(=O)Nc4nc(-c5ccc(F)cc5)ccc4N)C[C@@H]23)CC1 [Compound 269],> 5000,> 5000,–,–
Nc1ccc(-c2ccc(F)cc2)nc1NC(=O)N1C[C@@H]2[C@@H](CN3CCC3)[C@@H]2C1 [Compound 270],> 5000,> 5000,–,–
Nc1ccc(-c2ccc(F)cc2)nc1NC(=O)N1Cc2cc(CN3CC(F)(F)C3)cnc2C1 [Compound 271],500 to 5000,500 to 5000,–,–
Nc1ccc(-c2ccc(F)cc2)nc1NC(=O)N1Cc2cc(CN3CCC3)cnc2C1 [Compound 272],100 to 500,100 to 500,–,–
Nc1ccc(-c2ccc(F)cc2)nc1NC(=O)N1Cc2cc(CN3CCC(F)(F)C3)cnc2C1 [Compound 273],100 to 500,100 to 500,–,–
CC(C)Cc1cnc2c(c1)CN(C(=O)Nc1nc(-c3ccc(F)cc3)ccc1N)C2 [Compound 274],100 to 500,100 to 500,–,–
Nc1ccc(-c2ccc(F)cc2)nc1NC(=O)N1Cc2cc(CN3CC(F)C3)cnc2C1 [Compound 275],100 to 500,100 to 500,–,–
COC[C@@H]1[C@H]2CN(C(=O)Nc3nc(-c4ccc(F)cc4)ccc3N)C[C@@H]12 [Compound 276],500 to 5000,500 to 5000,–,–
Nc1ccc(-c2ccc(F)cc2)nc1NC(=O)N1Cc2cncnc2C1 [Compound 277],500 to 5000,500 to 5000,–,–
Nc1ccc(-c2ccc(F)cc2)nc1NC(=O)N1Cc2ccc(CO)cc2C1 [Compound 366],100 to 500,500 to 5000,–,–
CN1CCN(Cc2ccc3c(c2)CN(C(=O)Nc2nc(-c4ccc(F)cc4)ccc2N)C3)CC1 [Compound 367],100 to 500,500 to 5000,–,–
CN(C)Cc1ccc2c(c1)CN(C(=O)Nc1nc(-c3ccc(F)cc3)ccc1N)C2 [Compound 371],100 to 500,500 to 5000,–,–
Nc1ccc(-c2ccc(F)cc2)nc1NC(=O)N1Cc2ccncc2C1 [Compound 373],100 to 500,500 to 5000,–,–
CN1CCN(c2ccc3c(n2)CN(C(=O)Nc2nc(-c4ccc(F)cc4)ccc2N)C3)CC1 [Compound 391],100 to 500,100 to 500,–,–
Nc1ccc(-c2cccnc2)nc1NC(=O)N1Cc2ccc(CO)cc2C1 [Compound 395],> 5000,500 to 5000,–,–
Nc1ccc(-c2ccc(F)cc2)nc1NC(=O)N1Cc2cccnc2C1 [Compound 397],100 to 500,100 to 500,–,–
Nc1ccc(-c2ccc(F)cc2)nc1NC(=O)N1Cc2ccc(CN3CCCC3)cc2C1 [Compound 405],100 to 500,100 to 500,–,–

# Reference: patent EP3319959B1, “HETERO-HALO INHIBITORS OF HISTONE DEACETYLASE” (Alkermes, Inc., priority 2015, dated 2017)
